Data: PubChem BioAssay AID2060501 (Molecular Pharmacology Branch, DTP, NCI, 2025)

System: 282377-053-R-J1-PDC complex spheroids, viability
Assay: Anticancer human tumor 282377-053-R-J1-PDC patient-derived colon adenocarcinoma cell line growth inhibition [GQUAD]
Settings: for IC50: curve of first compound; for viability, T/C: stronger effect = lower value
Source text: DNA G-quadruplex Stabilizer Agents in Combinations in Complex Spheroids
A high-throughput screen of multi-cell type tumor spheroids was designed to identify active combinations of DNA G-quadruplex stabilizer agents and targeted small molecules. Complex spheroids include a stromal component modeled by human endothelial cells (HUVEC) and fibroblasts modeled by human mesenchymal stem cells (MSCs). The concentration ranges selected for each drug and investigational agent were based upon clinically achievable concentrations if the clinical Cmax of the agent was known.
Compounds. The drugs and investigational agents: pidnarulex (CX-5461; NSC782164), APTO-253 (NSC789042), BRACO-19 (NSC847499), peposertib (NSC802822), ceralasertib (NSC780249), elimusertib (NSC800525), camonsertib (NSC841442), AZD-1390 (NSC803789), olaparib (NSC753686), talazoparib (NSC767125), ART-558 (NSC835418), sotorasib (NSC818433), MRTX-1133 (NSC836407), SN-38 (NSC673596), topotecan (NSC609699), etoposide (NSC141540), doxorubicin (NSC123127), gemcitabine (NSC613327), 5-fluorouracil (NSC19893), paclitaxel (NSC125973), vemurafenib (NSC761431), panobinostat (NSC761190), R-306465 (JNJ-16241199; NSC773264), adavosertib (NSC754352), TP-3654 (NSC805149), carboplatin (NSC241240), KSQ-4279 (NSC840948), and staurosporine (NSC755774) were obtained from the National Cancer Institute (NCI) Developmental Therapeutics Program Chemical Repository (34). The FDA-approved anticancer drug set is available from the NCI Developmental Therapeutics Program. […] The stock solutions were prepared in dimethyl sulfoxide (DMSO, Sigma-Aldrich, St. Louis, MO, cat. D2650) at 800-fold the tested concentration and stored at -70 degrees C prior to their use. All drugs and investigational agents were tested over a range starting from a high concentration at or near the clinical Cmax and decreasing in half-log increments. If the clinical Cmax for an agent had not been determined, the highest concentration tested was 10 microM.
2.3 Cell Culture. All cells were maintained in an incubator at 37 degrees C and 5% CO2 with 95% humidity. The PDC lines were cultured according to standard operating procedures established by the NCI PDMR. All PDCs were thawed and cultured in Matrigel-coated flasks prepared with a working solution of 1X Ham's F-12 nutrient mix, without supplementation (Invitrogen, cat. 11765054), 100 U/mL penicillin-streptomycin (Invitrogen, cat. 15140122), and 2.5% Matrigel (Corning Inc., cat. 354248) for the first three passages. The 857933-349-R-J2-PDC line was cultured in 6C/Colon 1B media, which includes advanced DMEM/F-12 (Thermo Fisher Scientific, cat. 12634028), 10 mM HEPES (Thermo Fisher Scientific, cat. 15630080), 1X GlutaMAX supplement (Thermo Fisher Scientific, cat. 35050061), 0.1 mg/mL primocin (InvivoGen, cat. ant-pm-2), 10% defined fetal bovine serum, heat inactivated (HyClone Laboratories Inc., cat. SH30070.03HI), 50% L-WRN conditioned media (ATCC, cat. CRL-3276), 1.25 mM N-Acetyl-L-cysteine (Sigma-Aldrich, cat. A9165), 10 mM nicotinamide (Sigma-Aldrich, cat. N0636), 1X B-27 supplement (Thermo Fisher Scientific, cat. 17504044), 1X N-2 supplement (Thermo Fisher Scientific, cat. 17502048), 10 microM Y-27632 dihydrochloride (Tocris Bioscience, cat. 1254), and 50 ng/mL human EGF recombinant protein (Thermo Fisher Scientific, cat. PHG0311). The 485176-168-R4-J1-PDC line was cultured in Panc media, which includes all 6C/Colon 1B media components plus 100 ng/mL human FGF-10 (Thermo Fisher Scientific, cat. 100-26), 500 nM SB-431542 (Selleckchem, cat. S1067), and gastrin (Tocris, cat. 3006).
[…]
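Also: spheroids exposed to compounds for 7 days before readout.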
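For viability, T/C in this document: percent of vehicle DMSO control viability with 100% = untreated-like growth.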

For `CC1COCCN1c1cc(C2(O)CC3CCC(C2)O3)c2cnn(-c3ccn[nH]3)c2n1` (configuration not stated) + CN(C)c1ccc(Nc2c3ccc(NC(=O)CCN4CCCC4)cc3nc3cc(NC(=O)CCN4CCCC4)ccc23)cc1, the IC50 (second compound 0.0316 µM) was 730 nM, the IC50 (second compound 0.1 µM) was 425 nM and the IC50 (second compound 0.316 µM) was 632 nM. The IC50 (second compound 1 µM) was 649 nM, the IC50 (second compound 3.16 µM) was 825 nM and the IC50 (second compound 10 µM) was 734 nM. It also gave a viability, T/C (second compound 0.0316 µM, first compound 0.0316 µM) of 93.4%, a viability, T/C (second compound 0.0316 µM, first compound 0.1 µM) of 81.5% and a viability, T/C (second compound 0.0316 µM, first compound 0.316 µM) of 65.1%. For the same molecule, the viability, T/C (second compound 0.0316 µM, first compound 1 µM) was 44.9%, the viability, T/C (second compound 0.0316 µM, first compound 3.16 µM) was 28.1% and the viability, T/C (second compound 0.0316 µM, first compound 10 µM) was 20.9%. The viability, T/C (second compound 0.1 µM, first compound 0.0316 µM) was 82.5%, the viability, T/C (second compound 0.1 µM, first compound 0.1 µM) was 87.5% and the viability, T/C (second compound 0.1 µM, first compound 0.316 µM) was 55.4%. For the same molecule, the viability, T/C (second compound 0.1 µM, first compound 1 µM) was 37.3%, the viability, T/C (second compound 0.1 µM, first compound 3.16 µM) was 37.6% and the viability, T/C (second compound 0.1 µM, first compound 10 µM) was 22.6%. For the same molecule, the viability, T/C (second compound 0.316 µM, first compound 0.0316 µM) was 87.2%, the viability, T/C (second compound 0.316 µM, first compound 0.1 µM) was 92.6% and the viability, T/C (second compound 0.316 µM, first compound 0.316 µM) was 58.3%. For the same molecule, the viability, T/C (second compound 0.316 µM, first compound 1 µM) was 42.3%, the viability, T/C (second compound 0.316 µM, first compound 3.16 µM) was 34.8% and the viability, T/C (second compound 0.316 µM, first compound 10 µM) was 20.6%. It also gave a viability, T/C (second compound 1 µM, first compound 0.0316 µM) of 102%, a viability, T/C (second compound 1 µM, first compound 0.1 µM) of 89% and a viability, T/C (second compound 1 µM, first compound 0.316 µM) of 63.6%. It also gave a viability, T/C (second compound 1 µM, first compound 1 µM) of 41%, a viability, T/C (second compound 1 µM, first compound 3.16 µM) of 29.8% and a viability, T/C (second compound 1 µM, first compound 10 µM) of 21.5%. The viability, T/C (second compound 3.16 µM, first compound 0.0316 µM) was 81.9%, the viability, T/C (second compound 3.16 µM, first compound 0.1 µM) was 81.2% and the viability, T/C (second compound 3.16 µM, first compound 0.316 µM) was 80.9%. For the same molecule, the viability, T/C (second compound 3.16 µM, first compound 1 µM) was 43.7%, the viability, T/C (second compound 3.16 µM, first compound 3.16 µM) was 33.3% and the viability, T/C (second compound 3.16 µM, first compound 10 µM) was 23.4%. For the same molecule, the viability, T/C (second compound 10 µM, first compound 0.0316 µM) was 93%, the viability, T/C (second compound 10 µM, first compound 0.1 µM) was 72.8% and the viability, T/C (second compound 10 µM, first compound 0.316 µM) was 86.6%. For the same molecule, the viability, T/C (second compound 10 µM, first compound 1 µM) was 37.5%, the viability, T/C (second compound 10 µM, first compound 3.16 µM) was 28.6% and the viability, T/C (second compound 10 µM, first compound 10 µM) was 21.3%.
